Entries after “also recorded” stand apart in the source; their conditions may differ.
Experiments:
endometrium [1] = conditions: cited from earlier work
endometrium [2] = test: Endometrial biopsy histology (ERC-210); format: in vivo, postmenopausal women; conditions: 3 months of intravaginal administration
Method: Endometrial biopsy was performed at screening and at month 3 at end of study. All biopsies were examined by the same pathologist at the central laboratory (Dr. Robert Dubé, Department of cytology-pathology, Enfant-Jésus Hospital, Quebec City, Canada).

[3] = Bioavailability and metabolism of oral and percutaneous DHEA: serum steroids on 1st and 14th day
Excerpt: Thirty-six healthy 60-70-year-old postmenopausal women participated in the study after IRB approval and having given their written informed consent. Body weight was within ±20% of normal body weight according to Metropolitan Life Tables.
This study was a randomized open-label trial of 12 subjects per arm. After written informed consent was obtained and women were found eligible, each subject was randomized to receive DHEA by cream, gel or orally. Daily, before breakfast, for 14 days, subjects received, at the research clinic, either 4 g of 10% DHEA gel or 4 g of 10% DHEA cream applied on a total 30 cm×30 cm area of the thighs or two 50 mg capsules of DHEA orally before breakfast.
Blood sampling was performed at 08:00-09:00 h at screening and before application of DHEA, on the first day of dosing, as well as on days 2, 4, 7, 10 and 14. On the 1st and 14th days, blood samples were obtained at 0.5 h, 1 h, 1.5 h, 2 h, 3 h, 4 h, 5 h, 6 h, 7 h, 8 h, 12 h and 24 h following DHEA administration.
DHEA, DHEA-S, androst-5-ene-3β,17β-diol (5-diol), testosterone, androstenedione (4-dione), 17β-estradiol (E2), estrone (E1), estrone sulfate (E1-S), androsterone glucuronide (ADT-G), and androstane-3*,17β-diol glucuronide (3α-diol-G) were measured by gas chromatography/mass spectrometry (DHEA, 5-diol, 4-dione, testosterone, E1 and E2) using electron impact or chemical ionization and by liquid chromatography/tandem mass spectrometry using turboionspray (DHEA-S, E1-S, ADT-G and 3α-diol-G) as described (Labrie, Bélanger et al., 2006; Labrie, Bélanger, et al, 2007b and Swanson et al. 2007).
On days 1 and 14, the area under the curve of the serum concentration of each steroid was measured between 0 h and 24 h (AUC0-24 h). The areas under the curves were calculated by a linear trapezoidal method (model-independent). The relative bioavailability of the DHEA gel, DHEA cream and DHEA capsules was based on the mean difference in the log-transformed AUC values. All calculations were performed with the SAS software (SAS Institute, Cary, N.C., USA).

[4] = system: postmenopausal women with vaginal atrophy; test: Vaginal examination: secretions, color, epithelial integrity, surface thickness (ERC-210); format: in vivo; conditions: 2, 4, 8 and 12 weeks
Excerpt: At the same time intervals of 2, 4, 8 and 12 weeks, the gynecologist or physician in charge of the study at each site performed a vaginal exam to evaluate the degree of severity (none, mild, moderate or severe, analyzed using values of 0, 1, 2 and 3, respectively) for the main signs of vaginal atrophy, namely vaginal secretions, vaginal color, vaginal epithelial integrity and vaginal epithelial surface thickness. […] In fact, the beneficial effects observed by the gynecologist and or physician are almost superimposable to those self-reported by women on their most bothersome symptoms.
Vaginal examination was performed at screening and then at day 1 and at 2, 4, 8 and 12 weeks. Vaginal secretions, vaginal color, vaginal epithelial integrity and vaginal epithelial surface thickness were evaluated according to the following degrees of severity: none, mild, moderate or severe.

[5] = cited from earlier work
[6] = Serum levels of DHEA and eleven metabolites after daily intravaginal DHEA suppositories (clinical trial ERC-213); format: in vivo, 40-75 year-old postmenopausal women; conditions: 0.5% DHEA intravaginal
Excerpt: The primary objective of that study was the evaluation of the systemic bioavailability of DHEA and its metabolites following daily intravaginal application of suppositories at four different DHEA concentrations. This study was a randomized, placebo-controlled and double-blind trial of 10-subjects per arm.

[7] = one week daily intravaginal, mass spectrometry (Labrie, Cusan et al. 2008); cited from earlier work
[8] = system: postmenopausal women with vaginal atrophy; conditions: cited from earlier work
[9] = 24 h after 14th daily administration, oral or percutaneous
[10] = daily oral 50 mg (Arlt et al. 2001)

## CCCCC(=O)O[C@H]1CC[C@H]2[C@@H]3CCc4cc(O)ccc4[C@H]3CC[C@]12C [estradiol valerate]
Endometrium [1]; 2 mg/day, 3 months (Zang 2007)
  Increase of Ki labeling: 50%

## C[C@]12CC[C@H](O)CC1=CC[C@@H]1[C@@H]2CC[C@]2(C)C(=O)CC[C@@H]12 [DHEA, dehydroepiandrosterone]
Endometrium [2]
  Effect on endometrial histology: no effect on endometrial histology
[3]; 14th day compared to predosing
  Change in serum E1, E2 or testosterone AUC0-24 h: no significant change
[3]; 14th day, application of DHEA on the skin
  Change in serum DHEA-S: No significant change
[3]; [9]
  Change in serum E1-S: did not change
  Change in serum levels of E1 or E2: no significant change
[3]; day 1, up to 24 h, 4 g of 10% DHEA on the skin
  Change of serum ADT-G or 3α-diol-G: no significant change
[3]; day 14, application of DHEA on the skin
  Change in serum ADT-G: No significant change
[3]; day 14, percutaneous administration
  Change in serum 3α-diol-G: No significant change
[3]; female, human, serum, po
  Higher level of transformation of DHEA into ADT-G and 3α-diol-G, oral vs percutaneous: approximately 10 fold
  Transformation of DHEA into 4-dione, oral compared to percutaneous: 2.70-3.76 times
[3]; first 24 h
  Change in serum E1-S: did not change significantly
[3]; first 24 h, oral or percutaneous route
  Effect on serum levels of E1 or E2: no statistically significant effect
[4]
  Signs of vaginal atrophy at vaginal exam: highly statistically significant improvement of all four signs of vaginal atrophy
[5]; 23 h after last administration, 25 mg oral 6 months
  Serum DHEA and testosterone levels: not changed significantly
[5]; [10]
  Effect on serum testosterone or DHT: no significant effect
  Increase of DHEA and ADT-G: 80-90%
[5]; daily oral 100 mg (Labrie, Bélanger et al. 2007)
  Androgen metabolites as % of levels found in premenopausal women: 74%
[6]
  Serum levels of active estrogens (E1, E2, E1S) and androgens (testo, DHT): not significantly affected; also recorded: does not increase

## C[C@]12CC[C@H]3[C@@H](CCC4=CC(=O)CC[C@@]43C)[C@@H]1CC[C@@H]2O [testosterone]
Endometrium [1]; with estradiol valerate 2 mg/day (Zang 2007)
  Proliferation with simultaneous administration of testosterone: 28%

## C[C@]12CC[C@@H]3c4ccc(O)cc4CC[C@H]3[C@@H]1CC[C@@H]2O [E2, 17β-estradiol]
[7]
  Increase in serum E2: 5 fold
[8]; 25 μg intravaginally, 12 months (Simunic 2003)
  Cases with persisting dyspareunia: 12.4%
[8]; 12 weeks intravaginal 25 μg (Bachmann 2008)
  Patients having a pH less than 5.0: 51%

## CCCCCCCCCCC(=O)O[C@H]1CC[C@H]2[C@@H]3CCC4=CC(=O)CC[C@]4(C)[C@H]3CC[C@]12C [testosterone undecanoate]
Endometrium [1]; 40 mg every second day (Zang 2007)
  Effect on the endometrium: no effect on the endometrium

Reference: patent US10881650B2, “Pharmaceutical compositions” (priority 2007, dated 2021)
